These results are taken from patent publication US7977322B2 (Vertex Pharmaceuticals Incorporated, priority 2004, dated 2011).

In the assay the target is T1, ΔF508-CFTR (Homo sapiens, UniProt P13569, DEL508-508).
T1 construct: expressed in transfected cells
Briefly: Membrane potential optical (FRET/VIPR) assay, identification of correction compounds. Format: cell-based. The settings on record: Table 3, assay not given; for Emax: read-out: % Activity / % Efficacy (relative efficacy). In outline:
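NIH3T3 mouse fibroblasts stably expressing ΔF508-CFTR were exposed to compound for 16 h at 37° C in serum-free medium, then loaded with DiSBAC2(3)/CC2-DMPE. After addition of 10 μM forskolin plus 20 μM genistein in Cl⁻-free gluconate bath (pH 7.4), depolarization from Cl⁻ efflux was read by FRET (VIPR II).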

The structures appear in SMILES notation.

T1 sequence (P13569 with tags, fused parts or gaps DEL508-508): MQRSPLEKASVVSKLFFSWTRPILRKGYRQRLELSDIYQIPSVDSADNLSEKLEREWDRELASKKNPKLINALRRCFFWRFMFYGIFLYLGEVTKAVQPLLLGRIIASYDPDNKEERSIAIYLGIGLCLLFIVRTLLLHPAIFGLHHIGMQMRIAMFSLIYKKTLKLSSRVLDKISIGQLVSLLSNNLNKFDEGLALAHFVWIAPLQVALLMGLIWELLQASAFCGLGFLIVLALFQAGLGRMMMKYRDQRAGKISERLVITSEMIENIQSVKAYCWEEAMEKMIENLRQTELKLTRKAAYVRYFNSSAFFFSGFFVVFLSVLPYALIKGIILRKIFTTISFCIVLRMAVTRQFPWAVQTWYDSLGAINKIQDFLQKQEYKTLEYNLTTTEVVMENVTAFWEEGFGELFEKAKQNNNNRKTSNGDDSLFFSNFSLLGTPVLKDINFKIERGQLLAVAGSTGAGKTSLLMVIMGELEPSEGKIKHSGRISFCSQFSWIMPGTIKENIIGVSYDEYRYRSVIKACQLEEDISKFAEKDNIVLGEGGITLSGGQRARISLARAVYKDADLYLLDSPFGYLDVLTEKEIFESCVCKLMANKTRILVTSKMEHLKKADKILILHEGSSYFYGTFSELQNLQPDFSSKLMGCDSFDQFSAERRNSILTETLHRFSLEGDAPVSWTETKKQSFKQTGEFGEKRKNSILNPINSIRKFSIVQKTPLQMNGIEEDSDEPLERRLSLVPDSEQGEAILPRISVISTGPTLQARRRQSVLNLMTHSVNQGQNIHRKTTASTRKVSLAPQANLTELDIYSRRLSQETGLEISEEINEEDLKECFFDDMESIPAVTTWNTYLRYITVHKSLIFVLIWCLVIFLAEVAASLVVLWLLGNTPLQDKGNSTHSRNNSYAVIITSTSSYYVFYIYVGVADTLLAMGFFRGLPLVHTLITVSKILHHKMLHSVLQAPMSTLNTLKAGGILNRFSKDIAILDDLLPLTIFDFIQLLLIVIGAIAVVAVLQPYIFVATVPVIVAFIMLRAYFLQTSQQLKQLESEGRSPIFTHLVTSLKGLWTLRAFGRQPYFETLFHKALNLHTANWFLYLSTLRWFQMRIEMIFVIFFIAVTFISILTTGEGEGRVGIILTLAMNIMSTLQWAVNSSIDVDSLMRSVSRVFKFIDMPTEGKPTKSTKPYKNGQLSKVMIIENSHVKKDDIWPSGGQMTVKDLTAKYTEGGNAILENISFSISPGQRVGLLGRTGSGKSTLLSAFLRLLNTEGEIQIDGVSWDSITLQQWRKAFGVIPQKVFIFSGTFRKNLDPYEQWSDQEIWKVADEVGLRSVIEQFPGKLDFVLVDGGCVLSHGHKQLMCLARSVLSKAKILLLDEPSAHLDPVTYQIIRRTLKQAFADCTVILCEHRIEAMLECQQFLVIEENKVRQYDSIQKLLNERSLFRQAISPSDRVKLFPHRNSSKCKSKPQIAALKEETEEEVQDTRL

Turning to `CCOC(=O)c1nc(NC(=O)C2(c3ccc4c(c3)OCO4)CC2)sc1Cc1ccccc1OC` [Example 202], the “% Activity / % Efficacy (relative efficacy)” value is listed as “+++ (“+++” means>100%)” and the EC50 is less than 10 µM.

`O=C(Nc1ncc(C(c2ccccc2Cl)N2CCOCC2)s1)C1(c2ccc3c(c2)OCO3)CC1` (centres unmarked) [Example 203]: the “% Activity / % Efficacy (relative efficacy)” value is listed as “++ (“++” means between 25% to 100%)” and the EC50 is less than 10 µM. On to `O=C(Nc1ncc([C@@H](c2ccccc2Cl)N2CCCCC2)s1)C1(c2ccc3c(c2)OCO3)CC1` [Example 211], for which the EC50 was less than 10 µM and the Emax was greater than 100%.

Consider `C=CCN(C)C(c1cnc(NC(=O)C2(c3ccc4c(c3)OCO4)CC2)s1)c1ccccc1Cl` (centres unmarked) [Example 218], for which the “% Activity / % Efficacy (relative efficacy)” value is reported as “+++ (“+++” means>100%)” and the EC50 is less than 10 µM. Take `O=C(Nc1ncc(C(c2ccccc2Cl)N2CCC[C@@H]2CO)s1)C1(c2ccc3c(c2)OCO3)CC1` (some centres unmarked) [Example 229]: the EC50 is less than 10 µM and the Emax is greater than 100%. For the molecule `COCCN1CCN(C(c2cnc(NC(=O)C3(c4ccc5c(c4)OCO5)CC3)s2)c2ccccc2Cl)CC1` (centres unmarked) [Example 238], the “% Activity / % Efficacy (relative efficacy)” value is given as “+++ (“+++” means>100%)” and the EC50 was less than 10 µM. For `CCOC(c1cnc(NC(=O)C2(c3ccc4c(c3)OCO4)CC2)s1)c1ccccc1Cl` (centres unmarked) [Example 240], in that order: “+++ (“+++” means>100%)” and less than 10 µM.

In the case of `O=C(Nc1ncc(C(c2ccccc2Cl)n2ccnc2)s1)C1(c2ccc3c(c2)OCO3)CC1` (centres unmarked) [Example 241], the “% Activity / % Efficacy (relative efficacy)” value is recorded as “++ (“++” means between 25% to 100%)” and the EC50 was less than 10 µM. In the case of `COc1ccc(C2(C(=O)Nc3ncc(Cc4cnccc4OC)s3)CC2)cc1` [Example 242], the “% Activity / % Efficacy (relative efficacy)” value was “+++ (“+++” means>100%)” and the EC50 is less than 10 µM.

For the molecule `COc1ccc(C2(C(=O)Nc3ncc(C4(c5ccccc5OC)CC4)s3)CC2)cc1` [Example 243], the “% Activity / % Efficacy (relative efficacy)” value is reported as “+++ (“+++” means>100%)” and the EC50 was less than 10 µM. In the case of `COc1ccncc1Cc1cnc(NC(=O)C2(c3ccc4c(c3)OCO4)CC2)s1` [Example 244], the “% Activity / % Efficacy (relative efficacy)” value is recorded as “+++ (“+++” means>100%)” and the EC50 was less than 10 µM. Consider `COc1ccccc1C1(c2cnc(NC(=O)C3(c4ccc5c(c4)OCO5)CC3)s2)CC1` [Example 245], for which the “% Activity / % Efficacy (relative efficacy)” value is on record as “+++ (“+++” means>100%)” and the EC50 was less than 10 µM. For the molecule `CC(C)[C@@H](CO)NC(c1cnc(NC(=O)C2(c3ccc4c(c3)OCO4)CC2)s1)c1ccccc1Cl` (some centres unmarked) [Example 246], the EC50 is less than 10 µM and the Emax is greater than 100%.

In the case of `C=CCOC(c1cnc(NC(=O)C2(c3ccc4c(c3)OCO4)CC2)s1)c1ccccc1Cl` (centres unmarked) [Example 251], the concentration for a half-maximal effect (EC50) is less than 10 µM and the Emax was greater than 100%.

For the molecule `O=C(Nc1ncc(C(OCCN2CCCC2)c2ccccc2Cl)s1)C1(c2ccc3c(c2)OCO3)CC1` (centres unmarked) [Example 255], the EC50 was less than 10 µM. Consider `O=C1CC[C@@H](CO[C@H](c2cnc(NC(=O)C3(c4ccc5c(c4)OCO5)CC3)s2)c2ccccc2Cl)N1` [Example 256], for which the EC50 was less than 10 µM and the Emax was greater than 100%. On the same counts, the results for `O=C(Nc1ncc(C(OCC2CCOC2)c2ccccc2Cl)s1)C1(c2ccc3c(c2)OCO3)CC1` (centres unmarked) [Example 258] are less than 10 µM and greater than 100%. As to `COC(c1cnc(NC(=O)C2(c3ccc4c(c3)OCO4)CC2)s1)c1ccccc1Cl` (centres unmarked) [Example 260], the “% Activity / % Efficacy (relative efficacy)” value is “+++ (“+++” means>100%)” and the EC50 was less than 10 µM. On the same counts, the results for `CC(C)OC(c1cnc(NC(=O)C2(c3ccc4c(c3)OCO4)CC2)s1)c1ccccc1Cl` (centres unmarked) [Example 261] are “+++ (“+++” means>100%)” and less than 10 µM. On the same counts, the results for `COc1ccc(C2(C(=O)Nc3ncc(Cc4ccncc4Cl)s3)CC2)cc1` [Example 262] are “+++ (“+++” means>100%)” and less than 10 µM. For the molecule `COc1ccc(C2(C(=O)Nc3ncc(Cc4ncccc4OC)s3)CC2)cc1` [Example 263], the “% Activity / % Efficacy (relative efficacy)” value was “+++ (“+++” means>100%)” and the EC50 is less than 10 µM. Take `COc1ccc(C2(C(=O)Nc3ncc(Cc4ccc(F)cc4F)s3)CC2)cc1` [Example 264]: the “% Activity / % Efficacy (relative efficacy)” value was “+++ (“+++” means>100%)” and the EC50 is less than 10 µM. For `O=C(Nc1ncc(Cc2ccncc2Cl)s1)C1(c2ccc3c(c2)OCO3)CC1` [Example 265], in that order: “+++ (“+++” means>100%)” and less than 10 µM. `COc1cccnc1Cc1cnc(NC(=O)C2(c3ccc4c(c3)OCO4)CC2)s1` [Example 266]: the “% Activity / % Efficacy (relative efficacy)” value is listed as “+++ (“+++” means>100%)” and the EC50 is less than 10 µM.

Regarding `O=C(Nc1cnc(Cc2ccccc2Cl)s1)C1(c2ccc3c(c2)OCO3)CC1` [Example 267], the EC50 is less than 10 µM and the Emax was greater than 100%.

As for `COc1ccc(C2(C(=O)Nc3cnc(Cc4ccccc4Cl)s3)CC2)cc1` [Example 270], the “% Activity / % Efficacy (relative efficacy)” value is reported as “++ (“++” means between 25% to 100%)” and the EC50 is less than 10 µM. Consider `COCCOC(c1cnc(NC(=O)C2(c3ccc4c(c3)OCO4)CC2)s1)c1ccccc1Cl` (centres unmarked) [Example 273], for which the 50% effective concentration (EC50) was less than 10 µM and the Emax is greater than 100%. For `O=C(Nc1ncc(C(OCCCCO)c2ccccc2Cl)s1)C1(c2ccc3c(c2)OCO3)CC1` (centres unmarked) [Example 275], the “% Activity / % Efficacy (relative efficacy)” value is reported as “+ (“+” means<25%)” and the EC50 was less than 10 µM. For `CCN(C)CCOC(c1cnc(NC(=O)C2(c3ccc4c(c3)OCO4)CC2)s1)c1ccccc1Cl` (centres unmarked) [Example 276], in that order: “++ (“++” means between 25% to 100%)” and less than 10 µM.

For the molecule `O=C(Nc1ncc(C(OCCCCN2CCC(O)CC2)c2ccccc2Cl)s1)C1(c2ccc3c(c2)OCO3)CC1` (centres unmarked) [Example 279], the “% Activity / % Efficacy (relative efficacy)” value is “+++ (“+++” means>100%)” and the EC50 is less than 10 µM. For `COc1ccc(C2(C(=O)Nc3ncc(Cc4ccccc4C)s3)CC2)cc1` [Example 280], in that order: “+++ (“+++” means>100%)” and less than 10 µM. On the same counts, the results for `Cc1ccccc1Cc1cnc(NC(=O)C2(c3ccc4c(c3)OCO4)CC2)s1` [Example 281] are “+++ (“+++” means>100%)” and less than 10 µM.

Take `COc1ccc(C2(C(=O)Nc3ncc(Cc4ccc(F)cc4C)s3)CC2)cc1` [Example 282]: the “% Activity / % Efficacy (relative efficacy)” value is “++ (“++” means between 25% to 100%)” and the EC50 was less than 10 µM. For `Cc1cc(F)ccc1Cc1cnc(NC(=O)C2(c3ccc4c(c3)OCO4)CC2)s1` [Example 283], the “% Activity / % Efficacy (relative efficacy)” value was “++ (“++” means between 25% to 100%)” and the EC50 is less than 10 µM. For `O=C(Nc1nn(-c2ccccc2)cc1-c1cccs1)C1(c2ccc3c(c2)OCO3)CC1` [Example 286], the EC50 lay in the range of 10 to 25 µM and the Emax lay within 25 to 100%. For `Cn1nc(-c2ccc(Cl)c(Cl)c2)cc1NC(=O)C1(c2ccc3c(c2)OCO3)CC1` [Example 287], in that order: less than 10 µM and greater than 100%. For `Cc1csc(NC(=O)C2(c3ccc4c(c3)OCO4)CC2)c1C(N)=O` [Example 289], in that order: less than 10 µM and 25 to 100%. Regarding `CC(C)(C)c1cc(NC(=O)C2(c3ccc4c(c3)OCO4)CC2)c(C(N)=O)s1` [Example 290], the EC50 is less than 10 µM and the Emax lay within 25 to 100%. On the same counts, the results for `Cc1nn(-c2ccccc2)c(NC(=O)C2(c3ccc4c(c3)OCO4)CC2)c1-c1ccccc1` [Example 291] are 10 to 25 µM and 25 to 100%. On to `COc1nonc1NC(=O)C1(c2ccc3c(c2)OCO3)CC1` [Example 292], for which the EC50 lay within 10 to 25 µM and the Emax was in the range of 25 to 100%. As for `O=C(Nc1nnc(-c2ccccc2)s1)C1(c2ccc3c(c2)OCO3)CC1` [Example 293], the EC50 fell in the range of 10 to 25 µM and the Emax is 25 to 100%.

Regarding `CC1CCc2c(sc(NC(=O)C3(c4ccc5c(c4)OCO5)CC3)c2C#N)C1` (centres unmarked) [Example 296], the EC50 is less than 10 µM and the Emax was greater than 100%. For `Cc1cc(NC(=O)C2(c3ccc4c(c3)OCO4)CC2)n(Cc2ccccc2)n1` [Example 297], the EC50 fell in the range of 10 to 25 µM and the Emax lay in the range of 25 to 100%. As to `O=C(Nc1ncc(-c2ccncc2)s1)C1(c2ccc3c(c2)OCO3)CC1` [Example 299], the EC50 was 10 to 25 µM and the Emax lay within 25 to 100%. In the case of `CCC(c1ccccc1)c1nnc(NC(=O)C2(c3ccc4c(c3)OCO4)CC2)s1` (centres unmarked) [Example 301], the EC50 was less than 10 µM and the Emax is greater than 100%.

With `Cn1nnc2cc(C3(C(=O)Nc4ncc(Cc5ccccc5Cl)s4)CC3)ccc21` [Example 304], the EC50 is less than 10 µM and the Emax was greater than 100%.

In the case of `O=C(Nc1ncc(Cc2ccccc2Cl)s1)C1(c2cccc(F)c2)CCCCC1` [Example 305], the EC50 was less than 10 µM and the Emax is greater than 100%.

For the molecule `O=C(Nc1ncc(Cc2ccccc2Cl)s1)C1(c2ccccc2F)CCCCC1` [Example 306], the EC50 was less than 10 µM and the Emax is greater than 100%. For `O=C(Nc1ncc(Cc2ccccc2Cl)s1)C1(c2ccc(-n3cncn3)cc2)CC1` [Example 307], in that order: less than 10 µM and greater than 100%. On the same counts, the results for `CS(=O)(=O)Nc1cccc(C2(C(=O)Nc3ncc(Cc4ccccc4Cl)s3)CC2)c1` [Example 308] are less than 10 µM and 25 to 100%.

With `CS(=O)(=O)c1ccc(C2(C(=O)Nc3ncc(Cc4ccccc4Cl)s3)CC2)cc1` [Example 309], the EC50 is less than 10 µM and the Emax lay within 25 to 100%.

One may read the EC50 as the midpoint of the concentration-response curve.
